Data as given in US8895599B2, “Lipoprotein lipase-activating compositions comprising benzene derivates” (Otsuka Pharmaceutical Factory, Inc., priority 2008, dated 2014).

Compound	melting point [°C]
COc1cc(-c2cn3ccccc3n2)ccc1OCc1ccc(Cl)cc1Cl [Example 92]	138 to 139
COc1cc(-c2cn3ccccc3n2)ccc1OCc1ccc(F)cc1F [Example 93]	137 to 138
COc1cc(-c2cn3ccccc3n2)ccc1OCc1cc(F)ccc1F [Example 94]	115 to 117
COc1cc(-c2cn3cc(Br)ccc3n2)ccc1OCc1ccc(Cl)cc1 [Example 96]	178 to 180
COc1cc(-c2cn3cc(Br)ccc3n2)ccc1OCc1ccc(C#N)cc1 [Example 97]	165 to 166
COc1cc(-c2cn3cc(Br)cc(C)c3n2)ccc1OCc1ccccc1 [Example 98]	164 to 165
COc1cc(-c2cn3cc(Br)cc(C)c3n2)ccc1OCc1ccc(C#N)cc1 [Example 99]	177 to 178
COc1cc(-c2cn3cc(Br)c(C)c(C)c3n2)ccc1OCc1ccccc1 [Example 100]	158 to 160
COc1cc(-c2cn3cc(Br)c(C)c(C)c3n2)ccc1OCc1ccc(C#N)cc1 [Example 101]	180 to 181
COc1cc(-c2cn3ccccc3n2)ccc1OCc1c(F)cccc1F [Example 104]	136 to 137
COc1cc(-c2cnc3ccccn23)ccc1OCc1ccc(C#N)cc1 [Example 108]	148 to 149
COc1cc(-c2nc3ccccn3c2Cl)ccc1Oc1ccccc1 [Example 115]	108 to 109
COc1cc(-c2cccc3nccn23)ccc1OCc1ccccc1 [Example 116]	164 to 166
COc1cc(-c2cccc3nccn23)ccc1OCc1ccc(C#N)cc1 [Example 120]	155 to 157
COc1cc(-c2cnc3ccccn23)ccc1OCc1ccc(C(F)(F)F)cc1 [Example 122]	133 to 135
COc1cc(-c2cnc3ccccn23)ccc1OCc1ccc(F)cc1 [Example 133]	118 to 119
COc1cc(-c2cccc3nccn23)ccc1O [Example 137]	177 to 178
